Experimental data from PubChem BioAssay AID651792 (The Scripps Research Institute Molecular Screening Center, 2012).
Calls of active or inactive are those of the source. No rule for the calls is given here.

Each compound was assayed on FXN GAA850 promoter luciferase reporter, luminescence (assay: expanded-repeat frataxin promoter luciferase activation – cell-based, luminescence, GAA850 repeat, dose response (AID 651792)).
For `Cn1c(SCC(=O)NCC2CCCO2)ncc(C(=O)Nc2ccccc2)c1=O` (configuration not stated), the EC50 was > 59.6 µM (inactive). With `Fc1ccc(-c2nnc(Nc3nc4c(F)cccc4s3)o2)cc1` the EC50 was > 59.6 µM (inactive). With `COc1ccccc1NC(=O)c1cnc(SCC(=O)Nc2cc(C)on2)n(C)c1=O` the EC50 was > 59.6 µM (inactive). `CCc1nnc(NC(=O)CSc2ncc(C(=O)Nc3ccc(C)c(C)c3)c(=O)n2C)s1` was tested, and the EC50 was > 59.6 µM (inactive). With `CSc1ccc2nc(Nc3nnc(-c4ccc5c(c4)OCCO5)o3)sc2c1` the EC50 was > 59.6 µM (inactive). For `COc1ccccc1-c1nnc(Nc2nc3c(OC)cccc3s2)o1`, the EC50 was > 59.6 µM (inactive). `COc1ccc(-c2nnc(Nc3nc4cc(OC)ccc4s3)o2)c(OC)c1` was tested, and the EC50 was > 59.6 µM (inactive). `Clc1ccccc1-c1nnc(Nc2nc3cc4c(cc3s2)OCO4)o1` was tested, and the EC50 was > 59.6 µM (inactive). In the case of `Cn1c(SCC(=O)NCC2CCCO2)ncc(C(=O)Nc2ccc(F)cc2)c1=O` (configuration not stated), the EC50 is reported as > 59.6 µM (inactive). For `COc1cccc2sc(Nc3nnc(-c4ccccc4Cl)o3)nc12`, the EC50 was > 59.6 µM (inactive). For `COc1ccc(-c2nnc(Nc3nc4c(F)cccc4s3)o2)c(OC)c1`, the EC50 was > 59.6 µM (inactive). In the case of `CSc1ccc2nc(Nc3nnc(-c4ccccc4Cl)o3)sc2c1`, the EC50 is reported as > 59.6 µM (inactive). With `COc1ccc(-c2nnc(Nc3nc4ccc(OC)cc4s3)o2)c(OC)c1` the EC50 was > 59.6 µM (inactive). For `COc1ccccc1NC(=O)c1cnc(SCC(=O)NCC2CCCO2)n(C)c1=O` (configuration not stated), the EC50 was > 59.6 µM (inactive). With `COc1ccccc1CNC(=O)CSc1ncc(C(=O)Nc2ccccc2)c(=O)n1C` the EC50 was > 59.6 µM (inactive). `COc1ccccc1NC(=O)c1cnc(SCC(=O)Nc2nc3ccccc3s2)n(C)c1=O` was tested, and the EC50 was > 59.6 µM (inactive). `Cc1ccc(NC(=O)c2cnc(SCC(=O)Nc3cccc(C(F)(F)F)c3)n(C)c2=O)cc1C` was tested, and the EC50 was > 59.6 µM (inactive). `COc1cccc2sc(Nc3nnc(-c4ccccc4)o3)nc12` was tested, and the EC50 was > 59.6 µM (inactive). In the case of `COc1ccc(-c2nnc(Nc3nc4c(OC)cccc4s3)o2)c(OC)c1`, the EC50 is reported as > 59.6 µM (inactive). In the case of `COc1ccccc1-c1nnc(Nc2nc3ccc(F)cc3s2)o1`, the EC50 is reported as > 59.6 µM (inactive). In the case of `COc1ccc(-c2nnc(Nc3nc4ccc(SC)cc4s3)o2)c(OC)c1`, the EC50 is reported as > 59.6 µM (inactive). With `COc1ccc(-c2nnc(Nc3nc4ccc(F)cc4s3)o2)c(OC)c1` the EC50 was > 59.6 µM (inactive). With `COc1ccccc1NC(=O)c1cnc(SCC(=O)Nc2ccc3c(c2)OCO3)n(C)c1=O` the EC50 was > 59.6 µM (inactive). In the case of `COc1ccc(-c2nnc(Nc3nc4c(OC)cccc4s3)o2)cc1`, the EC50 is reported as > 59.6 µM (inactive). `COc1ccccc1NC(=O)c1cnc(SCC(=O)NCc2ccc3c(c2)OCO3)n(C)c1=O` was tested, and the EC50 was > 59.6 µM (inactive). `COc1ccccc1NC(=O)c1cnc(SCC(=O)NCCc2ccccc2)n(C)c1=O` was tested, and the EC50 was > 59.6 µM (inactive). In the case of `COc1ccccc1NC(=O)c1cnc(SCC(=O)NCc2ccccc2)n(C)c1=O`, the EC50 is reported as > 59.6 µM (inactive). With `Fc1ccc2nc(Nc3nnc(-c4ccccc4Cl)o3)sc2c1` the EC50 was > 59.6 µM (inactive). `Fc1cccc2sc(Nc3nnc(-c4ccccc4Cl)o3)nc12` was tested, and the EC50 was > 59.6 µM (inactive). For `COc1cccc2sc(Nc3nnc(-c4ccc(F)cc4)o3)nc12`, the EC50 was > 59.6 µM (inactive). For `Clc1ccc(-c2nnc(Nc3nc4cc5c(cc4s3)OCO5)o2)cc1`, the EC50 was > 59.6 µM (inactive). `Cn1c(SCC(=O)NCC2CCCO2)ncc(C(=O)Nc2ccc(Cl)cc2)c1=O` (configuration not stated) was tested, and the EC50 was > 59.6 µM (inactive).
